# Data from ChEMBL document CHEMBL1147819, “Synthesis of 2-alkoxy-8-hydroxyadenylpeptides: towards synthetic epitope-based vaccines” (Bioorg Med Chem Lett, 2006).
# Active and inactive are the calls of the source. The rule behind the calls is not given here. Residues, ends and D or L forms follow the SMILES beside them. *: point of attachment. X2 = C[C@H](N*)C(=O)N(C(=O)c1cn(CCOCCOCCOc2nc(N)c3nc(O)n(Cc4ccccc4)c3n2)nn1)[C@@H](CCCCN)C(N)=O; X1 = Nc1nc(OCCOCCOCCn2cc(C(=O)*)nn2)nc2c1nc(O)n2Cc1ccccc1
# Columns and labels:
# Format in all cases: functional, cell-based
# Conditions in all cases: Homo sapiens
# [1] = system: Dendritic cell; experiment: Induction of IL-12p40 in dendritic cells
# [2] = system: Dendritic cell; experiment: Induction of antigen presentation in dendritic cells
# [3] = system: Dendritic cell; experiment: Inhibition of antigen presentation in dendritic cells
Compound,Activity [1],Activity [2],Activity [3]
COCCOc1nc(N)c2[nH]c(=O)n(Cc3ccccc3)c2n1,Active,–,–
[N-]=[N+]=NCCOCCOCCOc1nc(N)c2[nH]c(=O)n(Cc3ccccc3)c2n1,Active,–,–
CC[C@H](C)[C@H](NC(=O)[C@H](CO)NC(=O)[C@H](CCC(=O)O)NC(=O)[C@H](CC(C)C)NC(=O)[C@H](CCC(N)=O)NC(=O)[C@H](CCC(=O)O)NC(=O)[C@H](CC(C)C)NC(=O)CNC(=O)[C@H](CO)NC(=O)[C@@H](NC(=O)[C@H](CCC(=O)O)NC(=O)[C@@H](N)CC(=O)O)C(C)C)C(=O)N[C@H](C(=O)N[C@@H](CC(N)=O)C(=O)N[C@@H](Cc1ccccc1)C(=O)N[C@@H](CCC(=O)O)C(=O)N[C@@H](CCCCN)C(=O)N[C@@H](CC(C)C)C(=O)N[C@@H](C)C(=O)N[C@@H](C)C(=O)N[C@@H](C)C(=O)N[C@@H](C)C(=O)N[C@@H](C)C(=O)N(C(=O)c1cn(CCOCCOCCOc2nc(N)c3nc(O)n(Cc4ccccc4)c3n2)nn1)[C@@H](CCCCN)C(N)=O)[C@@H](C)CC (H-DEVSGLEQLESIINFEKLAAAA-X2),–,Active,Active
CC[C@H](C)[C@H](NC(=O)[C@H](CO)NC(=O)[C@H](CCC(=O)O)NC(=O)[C@H](CC(C)C)NC(=O)[C@H](CCC(N)=O)NC(=O)[C@H](CCC(=O)O)NC(=O)[C@H](CC(C)C)NC(=O)CNC(=O)[C@H](CO)NC(=O)[C@@H](NC(=O)[C@H](CCC(=O)O)NC(=O)[C@H](CC(=O)O)NC(=O)c1cn(CCOCCOCCOc2nc(N)c3nc(O)n(Cc4ccccc4)c3n2)nn1)C(C)C)C(=O)N[C@H](C(=O)N[C@@H](CC(N)=O)C(=O)N[C@@H](Cc1ccccc1)C(=O)N[C@@H](CCC(=O)O)C(=O)N[C@@H](CCCCN)C(=O)N[C@@H](CC(C)C)C(=O)O)[C@@H](C)CC (X1-DEVSGLEQLESIINFEKL-OH),–,Active,Active
CC[C@H](C)[C@H](NC(=O)[C@H](CO)NC(=O)[C@H](CCC(=O)O)NC(=O)[C@H](CC(C)C)NC(=O)[C@H](CCC(N)=O)NC(=O)[C@H](CCC(=O)O)NC(=O)[C@H](CC(C)C)NC(=O)CNC(=O)[C@H](CO)NC(=O)[C@@H](NC(=O)[C@H](CCC(=O)O)NC(=O)[C@H](CC(=O)O)NC(=O)c1cn(CCOCCOCCOc2nc(N)c3nc(O)n(Cc4ccccc4)c3n2)nn1)C(C)C)C(=O)N[C@H](C(=O)N[C@@H](CC(N)=O)C(=O)N[C@@H](Cc1ccccc1)C(=O)N[C@@H](CCC(=O)O)C(=O)N[C@@H](CCCCN)C(=O)N[C@@H](CC(C)C)C(=O)N[C@@H](C)C(=O)N[C@@H](C)C(=O)N[C@@H](C)C(=O)N[C@@H](C)C(=O)N[C@@H](C)C(=O)N[C@@H](CCCCN)C(N)=O)[C@@H](C)CC (X1-DEVSGLEQLESIINFEKLAAAAAK-NH2),–,Active,Active
